Experimental data reported in publication PMC4710668, “Bioactivation of food genotoxicants 5-hydroxymethylfurfural and furfuryl alcohol by sulfotransferases from human, mouse and rat: a comparative study” (Archives of Toxicology, 2014).
Read-outs that look alike come from different tables or passages of the source. One block for each molecule: values may come before it.

Experiments:
[1] = set-up: method as in Glatt et al. [2012]; settings: in water at 37 °C; ref Glatt et al. [2012]; cited from earlier work
hSULT1A1 = biological target: T1, hSULT1A1 (Homo sapiens, UniProt P50225); settings: cited from earlier work; for K M of sulfoconjugation: ref Honma et al. [2001]
T1 construct: made in house; host or cells: Salmonella typhimurium TA1538 (cytosolic fraction, not purified)

[2] = set-up: method as in Monien et al. [2009]; settings: ref Monien et al. [2009], cited from earlier work
[3] = Stability of SMF in solution; assay type: physicochemical; settings: solutions containing 75 % 2-propanol at 4 °C, within four weeks
Experimental: The analytical technique used in this study was adapted from the SMF quantification in plasma samples of HMF-treated mice (Monien et al. [2009]). This is beset with two potential sources of inaccuracy. […] Here, we chose a reaction time of 30 min. […] SMF was analyzed by UPLC-MS/MS in the MRM mode using the specific fragmentation reactions of the sulfate ion radical (m/z = 204.9 → 96.0) and the protonated sulfonate ion (m/z = 204.9 → 81.0) (Monien et al. [2009]). Representative chromatograms are shown in Fig. S2 of the Supplementary Material. The SMF levels resulting from HMF sulfoconjugation were quantified using SMF solutions at various concentrations as external calibration line prepared in water/2-propanol (1:3), which represents the solvent composition in the incubation mixture following instant stopping and precipitating of proteins. The second source of imprecision of mass spectrometric SMF quantification with an external calibration is the possible ion suppression by residues from bacterial cytosol or buffer salts in the samples. This was tested in a separate experiment measuring the peak areas of six series of solutions with five different SMF concentrations, either prepared with water or with the contents of the incubation mixture including 1 mg/ml protein from a cytosolic preparation of native S. typhimurium TA1538.

T1 sequence (P50225 whole entry): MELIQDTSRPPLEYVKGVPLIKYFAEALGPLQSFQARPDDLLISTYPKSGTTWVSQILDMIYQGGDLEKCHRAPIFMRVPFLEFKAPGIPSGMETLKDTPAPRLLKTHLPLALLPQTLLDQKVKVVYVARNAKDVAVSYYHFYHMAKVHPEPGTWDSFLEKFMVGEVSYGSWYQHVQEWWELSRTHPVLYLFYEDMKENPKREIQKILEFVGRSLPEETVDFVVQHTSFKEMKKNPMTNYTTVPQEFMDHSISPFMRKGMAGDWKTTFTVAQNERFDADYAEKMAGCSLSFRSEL

SMILES: O=S(=O)(O)OCc1ccco1 [2-sulfoxymethylfuran]
t 1/2 [1]: 20 s

SMILES: COc1cc2c(CCNC(C)=O)c[nH]c2cc1O [6-hydroxymelatonin]
K M of sulfoconjugation (hSULT1A1): 18 µM

stability [3]: without any detectable degradation
SMILES: O=Cc1ccc(COS(=O)(=O)O)o1 [SMF, 5-sulfoxymethylfurfural]
half-life ([2]; in plasma at 37 °C): 1.8 h
half-life ([2]; in urine at 37 °C): 2.1 h
half-life ([2]; in water at 37 °C): 1.9 h

SMILES: NCCc1ccc(O)c(O)c1 [dopamine]
K M of sulfoconjugation (hSULT1A1): 130 µM

SMILES: O=[N+]([O-])c1ccc(O)cc1 [p-nitrophenol]
K M of sulfoconjugation (hSULT1A1): 3.0 µM

SMILES: CC(=O)Nc1ccc(O)cc1 [paracetamol]
K M of turnover (hSULT1A1; ref Adjei et al. [2008]): 2400 µM
